Measured values taken from PubChem BioAssay (NCI).
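Interpolation was linear, between the two tested concentrations surrounding the appropriate level; five concentrations were tested over 48 hours in 96-well plates. At the GI50, growth is halved. TGI marks complete inhibition of growth.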

Tests used:
Test in all cases: inhibition of tumour cell growth, NCI panel, 48 h
BT-549 breast = system: BT-549 breast
HCT-15 colon = system: HCT-15 colon
A549 NSCLC = system: A549 NSCLC
SNB-75 CNS = system: SNB-75 CNS
T-47D breast = system: T-47D breast
NCI-H522 lung = system: NCI-H522 lung
MDA-MB-231 breast = system: MDA-MB-231 breast
CCRF-CEM leukemia = system: CCRF-CEM leukemia
OVCAR-3 ovarian = system: OVCAR-3 ovarian
SK-MEL-2 melanoma = system: SK-MEL-2 melanoma
HS 578T breast = system: HS 578T breast

SMILES	TGI (BT-549 breast) [µM]	TGI (HCT-15 colon) [µM]	TGI (A549 NSCLC) [µM]	TGI (SNB-75 CNS) [µM]	TGI (T-47D breast) [µM]	TGI (NCI-H522 lung) [µM]	TGI (MDA-MB-231 breast) [µM]	TGI (CCRF-CEM leukemia) [µM]	TGI (OVCAR-3 ovarian) [µM]	TGI (SK-MEL-2 melanoma) [µM]	TGI (HS 578T breast) [µM]	GI50 (BT-549 breast) [µM]	GI50 (HCT-15 colon) [µM]	GI50 (A549 NSCLC) [µM]	GI50 (SNB-75 CNS) [µM]	GI50 (T-47D breast) [µM]	GI50 (MDA-MB-231 breast) [µM]	GI50 (CCRF-CEM leukemia) [µM]	GI50 (OVCAR-3 ovarian) [µM]	GI50 (HS 578T breast) [µM]
CNc1ncccc1Nc1cc(=O)n2c3cccnc3n(C)c2c1	> 100	> 100	> 100	78.1	> 100	> 100	> 100	> 100	> 100											
Cc1nc2ccc(Br)cc2c(=O)n1-c1nnc(C(C)(C)C)s1		> 10	> 10	> 10	> 10	> 10	> 10	> 10	> 10	> 10	> 10									
Nc1ccccc1CCN1CCN(CCCc2ccccc2)CC1	> 100	> 100	> 100		53.3	> 100	> 100	> 100	> 100	> 100	> 100									
Cc1ccc(C(=O)O)c(/C=C2\Cc3ccc(C)cc3C2=O)c1	> 100	> 100	> 100	> 100	> 100	> 100		> 100	> 100	> 100	> 100									
CCCC(C)c1ccc(OCCCCCCN2CCNCC2)cc1 (stereo not given)	12.4	3.77	4.34	3.06	3.72		3.58	7.46	3.87		4.74	3.08	1.88	1.9	1.41	1.71	1.75	2.44	1.78	1.87
COc1ccc(-c2c(C(C)=O)c(-c3ccccc3)n(C3OC(CO)C(O)C(O)C3O)c(=S)c2C#N)cc1 (stereo not given)		> 100	> 100		> 100	> 100	> 100	> 100	> 100											
CC(=O)SCCC(NC(=S)Nc1ccccc1)P(=O)(Oc1ccccc1)Oc1ccccc1 (stereo not given)		> 100	> 100	> 100	> 100	> 100	> 100	> 100	> 100		> 100									
O=C(NN1C(=O)C(Cl)C1c1ccc(Cl)cc1)c1c(Cl)c(Cl)c(Cl)c(Cl)c1-c1nc2ccccc2[nH]1 (stereo not given)	77.8	54.4	> 100	57	25	39.7		> 100	> 100	47.1	> 100									
Cc1ccc(S(=O)(=O)Nc2cccc3c(=O)[nH]cnc23)cc1		> 100	> 100	> 100		> 100		> 100	> 100	> 100										
O=C(O)CO[C@@]12C#C/C=C\C#C[C@@H]3N(C(=O)Oc4ccccc4)c4ccccc4[C@]14O[C@@]34CCC2	69.9	31.2	> 100		33.1	85.9	26.6	> 100	> 100	32.2	69.4									
C=CC[C@]1(/C=N/O)CN(S(=O)(=O)CC[Si](C)(C)C)C[C@H]2CC=CC[C@H]21	80.7	> 100	30.7	54.2	> 100	38	44.2	40.7		32.6										
N#CSCC(Cl)=CCl (mixture of isomers)		> 100	> 100	> 100	> 100	> 100	> 100	> 100	> 100	> 100	> 100									
S=C(N/N=C/c1ccccn1)N1CCCCC1	32.5	28.3	> 100	0.181		25.7			26.4	18.1	45.1									
N#Cc1ccc(-c2nc3c(N)ncnc3o2)cc1	> 100	> 100	> 100		> 100	> 100	> 100	> 100	> 100	> 100	> 100									
CCC(CC)NC1=C(NC(C)=O)C(=O)c2ccccc2C1=O		> 50	> 50	> 50		> 50		> 50	> 50	> 50										
CCCCCCNCCc1cnc[nH]1		> 100	> 100	> 100	> 100	> 100	> 100	> 100	> 100	> 100	> 100									
COC1(OC)N=C(N)C2(C#N)C(c3ccccc3)NC3=C(CCC3)C12C#N (stereo not given)	> 100	> 100	> 100		> 100	> 100	> 100	> 100		> 100	> 100									
NC(=Nc1ccccc1Cl)c1ccccc1N	> 100	> 100	> 100	> 100		> 100	> 100	> 100	> 100	> 100	> 100									
CN(C)/C=C/C(=CC=[N+](C)C)/C=C/N(C)C			> 100			> 100		> 100	> 100	> 100										
COc1ccc(CC2COc3cc(OC)cc(OC)c3C2=O)cc1 (stereo not given)	> 100	> 100	> 100		56	87	> 100		46.5	> 100	87.3									
CC1C2CC(C(S(=O)(=O)O)C2=O)C1(C)C (stereo not given)	> 100			> 100	> 100	> 100	> 100	> 100	> 100		> 100									
Nn1c(C23CC4CC(CC(C4)C2)C3)n[nH]c1=S		> 100	> 100	> 100	> 100	> 100	> 100	> 100	> 100	> 100	> 100									
